Experimental data reported in PMC9945182 (Chemical Research in Toxicology, 2023).

Assays:
UGT2B7 = target: T1, UGT2B7 (Homo sapiens, UniProt P16662); format: biochemical; conditions: human, microsomes from UGT2B7-overexpressing HEK293 cells, pH 7.4, probe 3HC (30 mM), 3HC-Gluc formation
T1 sequence (P16662 24-529): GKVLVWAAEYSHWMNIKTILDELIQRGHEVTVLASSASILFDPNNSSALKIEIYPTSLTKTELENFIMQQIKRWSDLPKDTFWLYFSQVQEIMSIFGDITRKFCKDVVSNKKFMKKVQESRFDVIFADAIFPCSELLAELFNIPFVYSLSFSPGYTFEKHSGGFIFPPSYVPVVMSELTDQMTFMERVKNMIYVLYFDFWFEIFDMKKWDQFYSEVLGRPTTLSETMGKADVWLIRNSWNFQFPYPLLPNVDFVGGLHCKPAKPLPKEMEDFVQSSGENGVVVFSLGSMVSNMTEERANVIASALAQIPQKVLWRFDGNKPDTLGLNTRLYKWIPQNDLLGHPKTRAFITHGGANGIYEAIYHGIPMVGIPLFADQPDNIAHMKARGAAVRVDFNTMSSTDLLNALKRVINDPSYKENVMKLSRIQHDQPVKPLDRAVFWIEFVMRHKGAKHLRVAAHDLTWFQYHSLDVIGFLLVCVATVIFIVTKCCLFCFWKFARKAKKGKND

UGT2B17 = target: T2, UGT2B17 (Homo sapiens, UniProt O75795); format: biochemical; conditions: human, microsomes from UGT2B17-overexpressing HEK293 cells, pH 7.4, probe 3HC (30 mM), 3HC-Gluc formation
T2 sequence (O75795 24-530): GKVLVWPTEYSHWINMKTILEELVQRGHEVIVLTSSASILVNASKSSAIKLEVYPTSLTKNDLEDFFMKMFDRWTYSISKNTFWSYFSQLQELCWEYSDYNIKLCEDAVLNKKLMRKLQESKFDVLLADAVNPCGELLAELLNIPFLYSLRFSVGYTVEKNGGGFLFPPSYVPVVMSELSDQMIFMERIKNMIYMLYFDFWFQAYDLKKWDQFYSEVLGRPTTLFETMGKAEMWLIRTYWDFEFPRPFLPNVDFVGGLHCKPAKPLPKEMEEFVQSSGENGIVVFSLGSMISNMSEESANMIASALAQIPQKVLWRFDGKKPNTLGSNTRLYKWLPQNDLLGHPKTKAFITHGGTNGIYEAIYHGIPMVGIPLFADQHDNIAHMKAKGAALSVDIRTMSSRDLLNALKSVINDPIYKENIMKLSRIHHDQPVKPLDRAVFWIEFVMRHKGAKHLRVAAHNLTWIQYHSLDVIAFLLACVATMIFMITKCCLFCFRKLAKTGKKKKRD

CYP2A6 [1] = target: T3, CYP2A6 (Homo sapiens, UniProt P11509); format: biochemical; conditions: 10 μM inhibitor; nicotine substrate; CYP2A6 microsomes
T3 sequence (P11509 1-494): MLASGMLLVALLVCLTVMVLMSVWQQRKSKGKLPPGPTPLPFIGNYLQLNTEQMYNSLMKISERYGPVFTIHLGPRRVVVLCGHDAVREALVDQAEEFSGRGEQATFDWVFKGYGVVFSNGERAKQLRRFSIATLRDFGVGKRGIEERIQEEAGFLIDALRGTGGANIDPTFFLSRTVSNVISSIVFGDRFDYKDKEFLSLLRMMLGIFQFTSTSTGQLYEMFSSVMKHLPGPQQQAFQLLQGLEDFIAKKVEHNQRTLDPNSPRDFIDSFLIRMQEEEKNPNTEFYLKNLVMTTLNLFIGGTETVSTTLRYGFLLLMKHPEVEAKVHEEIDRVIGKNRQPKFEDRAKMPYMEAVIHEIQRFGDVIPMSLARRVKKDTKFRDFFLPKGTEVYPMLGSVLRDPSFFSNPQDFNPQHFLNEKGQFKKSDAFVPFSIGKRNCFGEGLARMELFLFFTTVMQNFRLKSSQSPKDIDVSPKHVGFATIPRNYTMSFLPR

CYP2A6 [2] = target: T3, CYP2A6; format: biochemical; conditions: 10 μM inhibitor; nicotine substrate; CYP2A6 microsomes; vs 100% activity control
[3] = majority of tobacco users; cited from earlier work
CYP2B6 = target: T4, CYP2B6 (Homo sapiens, UniProt P20813); format: biochemical; conditions: human, microsomes from CYP2B6-overexpressing HEK293 cells, pH 7.4, probe nicotine (cotinine formation)
T4 sequence (P20813 1-491): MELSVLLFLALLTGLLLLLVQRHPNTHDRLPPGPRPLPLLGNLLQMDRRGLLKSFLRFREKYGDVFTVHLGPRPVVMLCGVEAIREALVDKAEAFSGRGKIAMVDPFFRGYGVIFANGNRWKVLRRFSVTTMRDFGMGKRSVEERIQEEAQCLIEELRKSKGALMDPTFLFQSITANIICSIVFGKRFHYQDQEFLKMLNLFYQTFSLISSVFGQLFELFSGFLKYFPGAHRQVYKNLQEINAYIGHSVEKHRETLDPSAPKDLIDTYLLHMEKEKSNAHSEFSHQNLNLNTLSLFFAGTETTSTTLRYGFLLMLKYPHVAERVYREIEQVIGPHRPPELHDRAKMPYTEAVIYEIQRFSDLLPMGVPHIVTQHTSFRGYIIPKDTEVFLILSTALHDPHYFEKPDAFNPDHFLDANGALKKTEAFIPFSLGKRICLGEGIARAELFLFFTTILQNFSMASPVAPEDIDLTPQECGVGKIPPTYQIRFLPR

CYP2A6 [4] = conditions: cited from earlier work

With `Cc1ccc(NC(=O)c2ccc(CN3CCN(C)CC3)cc2)cc1Nc1nccc(-c2cccnc2)n1` [imatinib] the inhibition at 200 µM (UGT2B7) was no more than 65% and the inhibition at 200 µM (UGT2B17) was no more than 65%.

With `N[C@@H]1C[C@H]1c1ccccc1` (racemic) [tranylcypromine] the “inhibition of nornicotine formation” value (CYP2A6 [1]) was 95% and the “inhibition of cotinine formation” value (CYP2A6 [2]) was 70%.

In the case of `CN1CCC[C@H]1c1cccnc1` [nicotine], the “fraction of nicotine metabolized to cotinine by CYP2A6” value [3] is given as “greater than 70%”.

Work on `COC(=O)[C@H](c1ccccc1Cl)N1CCc2sccc2C1` [clopidogrel] yielded an inhibition at 30 min, 50 µM (CYP2B6) of 60%.

For `C#CCN(C)[C@H](C)Cc1ccccc1` [selegiline], the Ki (CYP2A6 [4]) is given as 4.6 µM.
